Laboratory results taken from BigSolDB 2.1.

O=C1Cc2cc(F)ccc2N1
solubility (mole fraction)
Details	278.15 K	283.15 K	288.15 K	293.15 K	298.15 K	303.15 K	308.15 K	313.15 K	318.15 K	323.15 K
in DMF	0.226	0.239	0.253	0.27	0.289	0.309	0.331	0.357	0.384	0.419
in THF	0.0838	0.0938	0.104	0.115	0.129	0.144	0.162	0.183	0.209	0.237
in acetone	0.0551	0.0618	0.0678	0.0764	0.085	0.096	0.108	0.123	0.14	0.16
in acetonitrile	0.02	0.0227	0.0261	0.03	0.0344	0.0399	0.0463	0.0537	0.0632	0.0748
in ethyl acetate	0.0149	0.0165	0.0185	0.0206	0.0234	0.0265	0.03	0.0343	0.0394	0.0459
in isopropanol	0.0197	0.0225	0.0263	0.0309	0.0367	0.0436	0.0506	0.0601	0.0717	0.0857
in methanol	0.0247	0.0296	0.0358	0.0422	0.0504	0.0594	0.0704	0.0841	0.0998	0.12
in n-hexane	0.000387	0.000492	0.000623	0.000784	0.000984	0.00125	0.00153	0.00196	0.00247	0.00311
in n-propanol	0.0293	0.0336	0.0388	0.0445	0.0513	0.0598	0.0688	0.0798	0.093	0.11
